Experimental data as given in patent US9050312B2, “Strontium compound for treatment of sub-dermal soft tissue pain” (SANTOSOLVE AS, priority 2001, dated 2015).

System: severe pain in the neck and shoulders
Assay: Clinical testing: severe pain in the neck and shoulders after a car accident
Type: in vivo, human
Conditions: person; had not slept continuously any night since the accident
From the text: A person was involved in a car accident seven years earlier and had developed severe pain in the neck and shoulders. The patient had used non-steroidal anti-inflammatory drugs for a long time without significant effect. They had not slept continuously any night since the accident.
The patient tried the composition of Example 19 by administering topically to the areas of pain. They claimed a pain relieving effect after one minute and had no or very little pain for the following 2 to 3 days. After administration of the composition of Example 13 they were able to sleep for about 10 hours each of the next two nights.

SMILES: CNCC(O)C(O)C(O)C(O)CO.CNCC(O)C(O)C(O)C(O)CO.O=C([O-])CN(CCN(CC(=O)O)CC(=O)O)CC(=O)[O-].[Sr+2] [Example 13, SrEDTA Dimeglumine Salt]
- sleep each of the next two nights: about 10 hours
